Data from paper PMC11101637, “Bioinformatics leading to conveniently accessible, helix enforcing, bicyclic ASX motif mimics (BAMMs)” (Nature Communications, 2024).
Numbered stars: 1 amine (or outer) side, 2 acyl side, 3 side chain; on linkers, the order of the positions; unused ones are H or OH. Bridge positions count the residues as written; N and C are the ends. Ends that are not written are not given here. Peptide text beside a SMILES is read from it. mXylylene = c1cc(C[*:1])cc(C[*:2])c1

How the values were obtained:
[1] = circular dichroism; conditions: PBS; pH 7.4; 25 °C; 5-30 uM
[2] = CD spectroscopy: percent helicity and ellipticity ratio 222/208 nm; assay type: physicochemical; conditions: for % helicity: 5-30 μM peptide, three scans averaged, [θ]222/[θ]max
Description: Circular dichroism (CD) experiments
Concentrations of the stock solution were determined by […] absorption of Trp or 275 nm absorption of Tyr (and TMB, if present in peptides). Each sample was dissolved in 1x PBS (pH 7.4), 10% TFE/PBS or 20% TFE/PBS with the final concentration between 5 to 30 μM. CD spectra were acquired using circular dichroism spectrometer (Chirascan) equipped with a temperature controller using 1 mm cell at a scan speed of 0.5 nm/sec at indicated temperature. Each sample was scanned three times and the averaged spectrum was smoothed.
Calculation of percent helicity
For simplicity, ‘helicity’ or ‘helical’ in the following text all refers to α-type. For each peptide, mean residue ellipticities ([θ]/(c*n), c = concentration of the peptide, n = number of amino acids in the peptide) were used to calculate % helicity, which is an empirical indicator of peptide helicity. […] (n = number of amino acids in the peptide, T = 25.0 °C).

[3] = Amide H-D exchange study (NMR), protection factors; assay type: physicochemical; conditions: for H/D exchange experiment, per-residue value (Fig 5i): amide H-D exchange by NMR
Description: Lyophilized samples of peptides LDLL 12-mer and bicyclo 12-mer from the above experiments were dissolved in 600 µL of D2O/ TFE-d3 mixture (4:1) to initialize the H-D exchange. The pH of the solution was confirmed. Spectra were recorded on a preshimmed Bruker AVANCE 500 MHz spectrometer. The recorded temperature was 33 °C. The intensity changes for each amide proton were determined by monitoring either the NH peaks on 1D spectra or the cross-peaks between NH and RH on 2D TOCSY spectra when overlapping was severe. The peak intensity data was fit into one phase exponential equation to get the exchange rate constants using GraphPad Prism 6.0 program. The rate constants were input into Englander lab’s spreadsheet (https://hx2.med.upenn.edu/download.html) to calculate protection factor and stabilization energy.

[4] = In vitro peptide stability in human serum; assay type: in vitro ADME; conditions: 25% male human serum diluted in RPMI medium, 150 μM peptide, 37 °C, serum pre-equilibrated 15 min, methanol precipitation, RP-HPLC 210 nm peak area relative to 0 h, LC-MS for products
Description: In vitro peptide stability in human serum[50]
Male human serum (H-4522) was obtained from Sigma Aldrich (Missouri, USA). […] The initial time is recorded as peptides were added. The mixture was incubated at 37 °C and an aliquot of 40 μL was removed at different time intervals. […] The supernatant was analyzed in analytical RP-HPLC to calculate the amount of tested peptides, and in LCMS to analyze degradation products. The eluted peptides were detected by absorbance at 210 nm and quantified by their peak areas relative to the initial peak areas (0 h).

[5] = CD in PBS buffer (pH 7.4, 10 mM), 25.0 °C, 1 mm cell

Row | Compound | % helicity [2, 5] | helicity [1] | further results
1 | C[C@H](NC(=O)[C@H](CCCCN)NC(=O)[C@H](C)NC(=O)[C@H](C)NC(=O)[C@H](C)NC(=O)[C@H](C)NC(=O)[C@@H]1CSCc2cccc(c2)CSC[C@H](NC(=O)[C@@H](N)Cc2c[nH]c3ccccc23)C(=O)N[C@@H](CC(=O)O)C(=O)N[C@@H](C)C(=O)N[C@@H](C)C(=O)N1)C(N)=O (H-WCDAACAAAAKA-NH2; linker 2-6 via mXylylene) |  | 32% | 
2 | Ac-AAAAKAAAAKAW-NH2 [AAKA 12-mer] | 17% | 17% | ellipticity ratio 222/208 nm ([2]; CD in 10% TFE/PBS, 25 °C): 0.47; % helicity ([2]; CD in 10% TFE/PBS, 25 °C): 35%; ellipticity ratio 222/208 nm ([2]; CD in PBS, 25 °C): 0.26
3 | Ac-AAAAKAAAAKAAAAKAW-NH2 [AAKA] | 48% | 48% | 
4 | C[C@H](NC(=O)[C@H](CCCCN)NC(=O)[C@H](C)NC(=O)[C@H](C)NC(=O)[C@H](C)NC(=O)[C@@H]1CSCc2cc3cc(c2)CSC[C@H](NC(=O)[C@@H](N)Cc2c[nH]c4ccccc24)C(=O)N[C@@H](CC(=O)O)C(=O)N[C@@H](C)C(=O)N[C@@H](C)C(=O)N[C@@H](CSC3)C(=O)N1)C(N)=O [Bicyclo-short] |  |  | H/D exchange experiment, per-residue value (Fig 5i) ([3]; resi ID 3): 1.33; H/D exchange experiment, per-residue value (Fig 5i) ([3]; resi ID 4): 1.81; H/D exchange experiment, per-residue value (Fig 5i) ([3]; resi ID 5): 2.88; H/D exchange experiment, per-residue value (Fig 5i) ([3]; resi ID 6): 3.7; H/D exchange experiment, per-residue value (Fig 5i) ([3]; resi ID 7): 2.57; H/D exchange experiment, per-residue value (Fig 5i) ([3]; resi ID 8): 2.46; H/D exchange experiment, per-residue value (Fig 5i) ([3]; resi ID 9): 2.32; H/D exchange experiment, per-residue value (Fig 5i) ([3]; resi ID 10): 2.24
5 | Ac-ADAALLAAAKAAAAKAW-NH2 [ADLL] | 45% | 45% | 
6 | CC[C@H](C)[C@H](NC(=O)[C@H](CC(N)=O)NC(=O)[C@H](CCCCN)NC(=O)[C@H](CSC)NC(=O)[C@H](CSC)NC(=O)[C@H](C)NC(=O)[C@H](C)NC(=O)[C@H](CC(=O)O)NC(=O)[C@@H](N)CSC)C(=O)N[C@@H](C)C(=O)N[C@@H](CO)C(=O)N[C@@H](CC(C)C)C(=O)N[C@@H](CC(C)C)C(=O)N[C@@H](CCCNC(=N)N)C(=O)N[C@H](C(=O)N[C@@H](CCC(N)=O)C(=O)N[C@@H](C)C(=O)N[C@@H](Cc1c[nH]cn1)C(=O)N[C@H](C(=O)N[C@@H](CCCNC(=N)N)C(=O)N[C@@H](CCCCN)C(=O)N[C@@H](CCCCN)C(=O)N[C@@H](CCSC)C(=O)N[C@H](C(=O)N[C@@H](Cc1ccc(O)cc1)C(N)=O)C(C)C)[C@@H](C)CC)C(C)C [4m] (H-C(Me)DAAC(Me)C(Me)KNIASLLRVQAHIRKKMVY-NH2; N-terminus and C-terminus assumed) | 11% |  | ellipticity ratio 222/208 nm ([2]; CD in 10% TFE/PBS, 25 °C): 0.73; % helicity ([2]; CD in 10% TFE/PBS, 25 °C): 35%; ellipticity ratio 222/208 nm ([2]; CD in PBS, 25 °C): 0.29; half-life [4]: < 1 h
7 | Ac-ADAAAAAAAKAAAAKAW-NH2 [ADAA] | 55% | 55% | 
8 | C[C@H](NC(=O)[C@H](CCCCN)NC(=O)[C@H](C)NC(=O)[C@H](C)NC(=O)[C@H](C)NC(=O)[C@@H]1CSCc2cc3cc(c2)CSC[C@H](NC(=O)[C@@H](N)Cc2c[nH]c4ccccc24)C(=O)N[C@@H](CC(=O)O)C(=O)N[C@@H](C)C(=O)N[C@@H](C)C(=O)N[C@@H](CSC3)C(=O)N1)C(N)=O |  | 59% | 
9 | Ac-AAAAKAAAAKAAAAKAAAAKAW-NH2 [AAKA 22-mer] | 64% | 64% | 
10 | Ac-QVARQLAEIY-NH2 [1l] | 16% | 16% | ellipticity ratio 222/208 nm ([2]; CD in 10% TFE/PBS, 25 °C): 0.64; % helicity ([2]; CD in 10% TFE/PBS, 25 °C): 20%; ellipticity ratio 222/208 nm ([2]; CD in PBS, 25 °C): 0.48
11 | Ac-QAEELLRALDQY-NH2 [2l] | 13% | 13% | ellipticity ratio 222/208 nm ([2]; CD in 10% TFE/PBS, 25 °C): 0.53; % helicity ([2]; CD in 10% TFE/PBS, 25 °C): 23%; ellipticity ratio 222/208 nm ([2]; CD in PBS, 25 °C): 0.27
12 | CSC[C@H](NC(=O)[C@H](C)NC(=O)[C@H](CCC(N)=O)NC(=O)[C@H](CC(=O)O)NC(=O)[C@@H](N)CSC)C(=O)N[C@@H](CSC)C(=O)N[C@@H](CC(C)C)C(=O)N[C@@H](CC(C)C)C(=O)N[C@@H](CCCNC(=N)N)C(=O)N[C@@H](C)C(=O)N[C@@H](CC(C)C)C(=O)N[C@@H](CC(=O)O)C(=O)N[C@@H](CCC(N)=O)C(=O)N[C@@H](Cc1ccc(O)cc1)C(N)=O [2m] (H-C(Me)DQAC(Me)C(Me)LLRALDQY-NH2; N-terminus and C-terminus assumed) | 10% | 10% | ellipticity ratio 222/208 nm ([2]; CD in 10% TFE/PBS, 25 °C): 0.44; % helicity ([2]; CD in 10% TFE/PBS, 25 °C): 24%; ellipticity ratio 222/208 nm ([2]; CD in PBS, 25 °C): 0.23
13 | WCAAACCAAAKA (also: bicyclic or more (positions not given here)) [bicyclo-D/A 12-mer, bicyclo 12-mer with Asp Ncap replaced with Ala] |  |  | reduction of helicity on substitution of Asp Ncap by Ala ([2]; CD in PBS, relative to bicyclo 12-mer): 49%
14 | Ac-IDAALLAAAKAAAAKAW-NH2 [IDLL] | 69% | 69% | 
15 | Ac-LDAALLAAAKAW-NH2 [LDLL-short] |  |  | H/D exchange experiment, per-residue value (Fig 5i) ([3]; resi ID 1): 0.3; H/D exchange experiment, per-residue value (Fig 5i) ([3]; resi ID 3): 1.3; H/D exchange experiment, per-residue value (Fig 5i) ([3]; resi ID 4): 1.66; H/D exchange experiment, per-residue value (Fig 5i) ([3]; resi ID 5): 1.96; H/D exchange experiment, per-residue value (Fig 5i) ([3]; resi ID 6): 1.83; H/D exchange experiment, per-residue value (Fig 5i) ([3]; resi ID 7): 1.96; H/D exchange experiment, per-residue value (Fig 5i) ([3]; resi ID 9): 2.2; H/D exchange experiment, per-residue value (Fig 5i) ([3]; resi ID 10): 1.69; H/D exchange experiment, per-residue value (Fig 5i) ([3]; resi ID 11): 1.68
16 | C[C@H](NC(=O)[C@H](CCCCN)NC(=O)[C@H](C)NC(=O)[C@H](C)NC(=O)[C@H](C)NC(=O)[C@@H]1CSCc2cccc(c2)CSC[C@H](NC(=O)[C@@H](N)Cc2c[nH]c3ccccc23)C(=O)N[C@@H](CC(=O)O)C(=O)N[C@@H](C)C(=O)N[C@@H](C)C(=O)N[C@@H](C)C(=O)N1)C(N)=O (H-WCDAAACAAAKA-NH2; linker 2-7 via mXylylene) |  | 34% | 
17 | Ac-LDAALLAAAKAW-NH2 |  | 28% | 
18 | Ac-FDAALLAAAKAAAAKAW-NH2 [FDLL] | 53% | 53% | 

More lines, main results first:

Row | % helicity [2, 5] | Compound | helicity [1] | further results
19 | 52% | Ac-LDAAELAAAKAAAAKAW-NH2 [LDEL] | 52% | 
20 | 48% | Ac-VDAALLAAAKAAAAKAW-NH2 [VDLL] | 48% | 
21 | 39% | Ac-LDAALAAAAKAAAAKAW-NH2 [LDLA] | 39% | 
22 | 93% | Ac-LDAALLAAAKAAAAKAW-NH2 [LDLL] | 93% | 
23 | 69% | Ac-LDAAALAAAKAAAAKAW-NH2 [LDAL] | 69% | 
24 | 69% | Ac-LDAAFLAAAKAAAAKAW-NH2 [LDFL] | 69% | 
25 | 28% | Ac-LDAALLAAAKAW-NH2 [LDLL 12-mer] |  | ellipticity ratio 222/208 nm ([2]; CD in 10% TFE/PBS, 25 °C): 0.57; % helicity ([2]; CD in 10% TFE/PBS, 25 °C): 43%; ellipticity ratio 222/208 nm ([2]; CD in PBS, 25 °C): 0.39
26 | 70% | Ac-LDAALVAAAKAAAAKAW-NH2 [LDLV] | 70% | 
27 | 45% | Ac-LAAALLAAAKAAAAKAW-NH2 [LALL] | 45% | 
28 | 101% | Ac-LDAALLAAAKAAAAKAAAAKAW-NH2 [LDLL 22-mer] | 101% | 
29 | 83% | Ac-LDAALFAAAKAAAAKAW-NH2 [LDLF] | 83% | 
30 | 63% | Ac-LDAATLAAAKAAAAKAW-NH2 [LDTL] | 63% | 
31 | 59% | C[C@H](NC(=O)[C@H](CCCCN)NC(=O)[C@H](C)NC(=O)[C@H](C)NC(=O)[C@H](C)NC(=O)[C@@H]1CSCc2cc3cc(c2)CSC[C@H](NC(=O)[C@@H](N)Cc2c[nH]c4ccccc24)C(=O)N[C@@H](CC(=O)O)C(=O)N[C@@H](C)C(=O)N[C@@H](C)C(=O)N[C@@H](CSC3)C(=O)N1)C(N)=O [bicyclo 12-mer] |  | ellipticity ratio 222/208 nm ([2]; CD in 10% TFE/PBS, 25 °C): 1.21; % helicity ([2]; CD in 10% TFE/PBS, 25 °C): 72%; ellipticity ratio 222/208 nm ([2]; CD in PBS, 25 °C): 0.76; protection factors (H/D exchange) around the capping region ([3]; D2O/TFE-d3 (4:1), 33 °C, NMR 500 MHz): significantly higher than for the linear LDLL 12-mer
32 | 37% | Ac-LDAAQLAAAKAAAAKAW-NH2 [LDQL] | 37% | 
33 | 67% | Ac-LDAASLAAAKAAAAKAW-NH2 [LDSL] | 67% | 
34 | 52% | Ac-LDAALIAAAKAAAAKAW-NH2 [LDLI] | 52% | 
